The source of these data is patent publication US11279703B2, “Fused pyrimidine compounds as BRD4 and JAK2 dual inhibitors and methods for use thereof” (APTOSE BIOSCIENCES INC., priority 2016, dated 2022).

pIC50: −log10 of the molar value.

In experiment [1] the target is JAK2 (Homo sapiens (Human), UniProt O60674). Nature of the experiment: HTRF kinase assay, JAK2. It counts as biochemical. The source says: A kinase assay with HTRF was used to observe JAK activity and calculate the IC50s of compounds disclosed herein. HTRF is an enzymatic assay used to determine the amount of phosphorylated peptide. FRET (Fluorescence Resonance Energy Transfer) is based on the transfer of energy between two fluorophores—a donor and an acceptor—when in close proximity. Molecular interactions between biomolecules can be assessed by coupling each partner with a fluorescent label and by detecting the level of energy transfer. The amount of phopshorylated peptide can be detected using a combination of a Eu 3+Cryptate labeled anti-phospho residue antibody, SA-XL665 and a biotinylated substrate. The signal is proportional to the concentration of phospho-residues.
Equipment Required • 1. […] Plate centrifuge • 3. Plate shaker • 4. […] Single channel and multi-channel pipettes • 6. Microplate reader (Pherastar)]
Stock and Final Assay Concentrations (FAC) • 1. All reference and test compounds are made at a concentration of 10 mM in DMSO. Compounds are serially diluted in DMSO and a FAC starting from 10 μM to 10 point 3 fold serial dilutions is arrived. For Ruxolitinib the starting FAC is 1 μM. FAC of DMSO is 1%. • 2. Enzyme stock and FAC
• JAK-1: Invtirogen Cat: PR8767C • JAK-2: Invtirogen Cat: PR7820B • JAK-3: Invtirogen Cat: PR7507B • 3. Substrate (synthetic peptide-Biotinylated-N-terminal tag-[…] from Biopeptide) stock and FAC
• Adenosine 5′-triphosphate disodium salt hydrate: Sigma Cat: A26209 • 5. […] Buffers • Base buffer (for 50 ml)
• HTRF buffer: • 50 mM Tris-HCl, pH—7.5 • 100 mM NaCl • 0.1% BSA • 0.05% Tween20 • 0.5 mM EDTA
To a 384 well black-plate: • 1. Add 17 μL of the buffer to each well of the 384-well black plate • 2. […] Add 5 μl of the enzyme to each well of the plate • 4. Add 10 μl of the substrate and ATP mix to all the wells • 5. Cover with plate sealer • 6. […] Incubate at room temperature for 1 hour on shaker • 8. […] Add 37.5 μL of the HTRF mix to these wells. • 9. Incubate the plate at room temperature on shaker for 45 minutes. • 10.
(§1) The percent inhibition is calculated in the excel analysis template and the IC50 values are subsequently determined using a sigmoidal dose-response curve (variable slope) using GraphPad Prism® 5 software.
(Time-resolved FRET reads energy transfer from a long-lived donor to a nearby acceptor.)

Experiment [2] addresses BRD4-BD1 (Homo sapiens (Human), UniProt O60885). Briefly: AlphaLisa bromodomain binding assay, BRD4-BD1. The following applies: Table 6; read-out: BRD4(1) IC50.
From the text: An AlphaLisa assay was used to observe bromodomain binding and measure IC50s for the compounds disclosed herein. An AlphaLisa assay is a bead-based assay used to detect interactions between bromodomains and polyacetylated histone peptides. Donor and acceptor beads bound to target and ligand are brought into proximity by this protein-protein interaction.
Equipment Required • 1. […] Plate centrifuge • 3. Plate shaker • 4. […] Single channel and multi-channel pipettes • 6. Microplate reader (Pherastar)
Stock and Final Assay Concentrations (FAC) • 1. All reference and test compounds are made at a concentration of 10 mM in DMSO. Compounds are serially diluted in DMSO and a FAC starting from 10 μM to 10 point 3 fold serial dilutions is arrived. FAC of DMSO is 1%. • 2. Enzyme stock and FAC
Biotinylated substrate (Acetylated histone H4, biotinylated substrate—cat no. AS64989-025, Anaspec) stock and FAC
• 4. Acceptor and donor beads stock and FAC
Buffers • For the enzyme and substrate dilution following buffer is used (for 50 ml) • HEPES: 50 mM 2.5 ml • NaCl: 25 mM 1.25 ml • DTT: 10 mM 0.05 ml • BSA: 0.1% 0.05 g • MilliQ water: 45.7 ml • For dilution of acceptor and donor beads AlphaLISA 5× epigenetics Buffer Perkin Elmer (Cat: AL008C) is used at 1× concentration.
Procedure • 1. […] Tap the plate gently • 3. […] Cover with plate sealer • 5. […] Incubate the plate at room temperature for 10 minutes • 7. Add 10 μl of the substrate • 8. Cover with plate sealer • 9. […] Cover with plate sealer • 14. […] Cover with plate sealer • 18.
as §1

JAK2, sequence (O60674 whole entry): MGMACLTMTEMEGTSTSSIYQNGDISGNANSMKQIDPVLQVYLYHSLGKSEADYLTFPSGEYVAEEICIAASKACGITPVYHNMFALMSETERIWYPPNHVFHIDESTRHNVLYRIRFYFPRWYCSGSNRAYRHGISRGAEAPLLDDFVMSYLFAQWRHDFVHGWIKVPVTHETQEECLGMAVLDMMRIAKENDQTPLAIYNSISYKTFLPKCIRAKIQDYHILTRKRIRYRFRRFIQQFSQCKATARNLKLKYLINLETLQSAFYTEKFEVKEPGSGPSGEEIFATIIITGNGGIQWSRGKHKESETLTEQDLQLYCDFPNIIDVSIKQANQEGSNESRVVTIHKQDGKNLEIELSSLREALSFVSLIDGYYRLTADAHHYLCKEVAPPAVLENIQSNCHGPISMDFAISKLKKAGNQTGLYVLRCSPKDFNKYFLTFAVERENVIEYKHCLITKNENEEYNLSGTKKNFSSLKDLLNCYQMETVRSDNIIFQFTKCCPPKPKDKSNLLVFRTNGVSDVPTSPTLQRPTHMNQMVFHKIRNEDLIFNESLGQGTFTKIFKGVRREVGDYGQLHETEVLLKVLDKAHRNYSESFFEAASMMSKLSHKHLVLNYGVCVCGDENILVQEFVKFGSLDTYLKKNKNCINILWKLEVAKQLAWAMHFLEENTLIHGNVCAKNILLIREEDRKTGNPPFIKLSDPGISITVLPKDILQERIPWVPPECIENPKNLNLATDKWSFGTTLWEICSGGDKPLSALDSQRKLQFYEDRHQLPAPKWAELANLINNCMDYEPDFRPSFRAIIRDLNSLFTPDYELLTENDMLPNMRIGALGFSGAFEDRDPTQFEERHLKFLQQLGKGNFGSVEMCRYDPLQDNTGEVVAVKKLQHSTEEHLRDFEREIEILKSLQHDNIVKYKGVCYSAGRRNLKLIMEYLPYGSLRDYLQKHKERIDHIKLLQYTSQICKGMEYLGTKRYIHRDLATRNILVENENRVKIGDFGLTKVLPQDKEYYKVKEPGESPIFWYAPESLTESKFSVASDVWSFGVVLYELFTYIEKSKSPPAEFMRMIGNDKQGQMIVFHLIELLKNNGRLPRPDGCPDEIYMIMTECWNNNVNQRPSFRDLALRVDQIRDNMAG

In general, pIC50 refers to the negative decadic logarithm of the IC50, by convention in mol/L. As for `CN1CCN(c2ccc(Nc3ncc4scc(-c5cccc(NS(=O)(=O)C(C)(C)C)c5)c4n3)cc2)CC1`, the pIC50 in experiment [1] (Table 3) is 8.32. On to `O=C1Cc2c(cccc2-c2ccnc(Nc3ccccc3)n2)N1`, for which the pIC50 in experiment [1] (Table 6) was 5.17. On the same count and under the same terms, the result for `COc1cccc(Nc2nccc(-c3cccc4c3CC(=O)N4)n2)c1` reads 5.65. Consider `Cc1cnc(Nc2ccc(N3CCN(C)CC3)cc2)nc1-n1ccc2c1CCNC2=O`, for which the pIC50 was 5.24 in experiment [2] and 5.23 in experiment [1] (Table 6). With `CN1CCN(c2ccc(Nc3nccc(Nc4cccc5c4CC(=O)N5)n3)cc2)CC1`, the pIC50 in experiment [1] (Table 6) was 6.41. In the case of `CN1CCN(c2ccc(Nc3cc(Nc4cccc(NS(=O)(=O)C(C)(C)C)c4)c4sccc4n3)cc2)CC1`, the pIC50 in experiment [2] was 5.54; in experiment [1] (Table 6) it was 5.33. For the molecule `Cc1cnc(Nc2ccc(N3CCN(C)CC3)cc2)nc1-n1ccc(C(=O)NC2CC2)c1`, in experiment [1] (Table 6), the pIC50 was 7.52. With `CC1CNCCC1Nc1nc(Nc2cccc(NS(=O)(=O)C(C)(C)C)c2)c2ccsc2n1` (stereo not shown), the values for the pIC50 in experiment [2] and in experiment [1] (Table 6) were 5.70 and 5.00, respectively. The like results for `CC1(C)CNCCC1Nc1cc(Nc2cccc(NS(=O)(=O)C(C)(C)C)c2)c2ccsc2c1` (stereo not shown) were, in that order, 5.55 and 5.00. The like results for `CC1CNCCC1Nc1nc(Nc2ccc3c(c2)N(S(=O)(=O)C(C)(C)C)CC3)c2ccsc2n1` (stereo not shown) were, in that order, 5.24 and 5.00.

Take `CC(C)(C)S(=O)(=O)Nc1cc(Nc2nc(NC3CCNCC3)nc3ccsc23)ccc1Cl`: the pIC50 in experiment [2] was 5.49; in experiment [1] (Table 6), 5.00. The like results for `CN1CCN(c2ccc(Nc3nc(Nc4ccc(Cl)c(NS(=O)(=O)C(C)(C)C)c4)c4sccc4n3)cc2)CC1` were, in that order, 5.57 and 5.00.

Regarding `CN1CCC(Nc2nc(Nc3ccc(Cl)c(NS(=O)(=O)C(C)(C)C)c3)c3sccc3n2)CC1`, the pIC50 in experiment [2] is 6.05; in experiment [1] (Table 6) it was 5.00. Turning to `Cc1sc2c(c1C)C(c1ccc(Cl)cc1)=N[C@@H](CC(=O)OC(C)(C)C)c1nnc(C)n1-2`, in experiment [1] (Table 6), the pIC50 is 5.00.

Consider `CC1CNCC(C)C1Nc1nc(Nc2cccc(NS(=O)(=O)C(C)(C)C)c2)c2ccsc2n1` (stereo not shown), for which the negative-log IC50 (pIC50) in experiment [2] and in experiment [1] (Table 6) was 5.00 each time. As for `CC(C)(C)S(=O)(=O)Nc1cccc(Nc2nc(NC3CCN(c4ccccc4)CC3)nc3sccc23)c1`, the pIC50 in experiment [2] and in experiment [1] (Table 6) was 5.00 each time. Regarding `CC(C)(C)S(=O)(=O)Nc1cccc(Nc2nc(NC3CCN(C(N)=O)CC3)nc3sccc23)c1`, the results for the pIC50 in experiment [2] and in experiment [1] (Table 6) were 5.52 and 5.00, respectively. As for `CN(c1cccc(Nc2nc(NC3CCNCC3)nc3sccc23)c1)S(=O)(=O)C(C)(C)C`, the pIC50 was 6.06 in experiment [2] and 5.00 in experiment [1] (Table 6). The like results for `CN1CCN(c2ccc(Nc3nc(-n4ccc(C(=O)NC5CC5)c4)c4ccsc4n3)cc2F)CC1` were, in that order, 5.00 and 5.00. For `CN1CCC(Nc2nc(Nc3cccc(N(C)S(=O)(=O)C(C)(C)C)c3)c3ccsc3n2)CC1` the same measures were 6.03 and 5.00.

In the case of `CN1CCN(c2ccc(Nc3nc(Nc4cccc(NS(=O)(=O)C(C)(C)C)c4)c4ncsc4n3)cc2)CC1`, the pIC50 was 5.81 in experiment [2] and 5.00 in experiment [1] (Table 6). Regarding `COc1nc(Nc2ccc(N3CCN(C)CC3)cc2)nc2c1ccn2-c1cccc(NS(=O)(=O)C(C)(C)C)c1`, the pIC50 in experiment [2] is 5.29; in experiment [1] (Table 6), 5.00. The like results for `CC(C)(C)S(=O)(=O)Nc1cccc(Nc2nc(NC3CCNC(=O)C3)nc3sccc23)c1` (stereo not shown) were, in that order, 5.92 and 5.00. The like results for `CN1CCN(c2ccc(Nc3nc(Nc4cccc(NS(=O)(=O)C(C)(C)C)c4)c4cc[nH]c4n3)cc2)CC1` were, in that order, 5.77 and 7.49. For `COc1nc(NC2CCNCC2)nc2c1ccn2-c1cccc(NS(=O)(=O)C(C)(C)C)c1` the same measures were 6.91 and 5.52. In the case of `CC(C)(C)S(=O)(=O)Nc1cccc(Nc2nc(NC3CC4CC3CN4)nc3sccc23)c1` (stereo not shown), the figures for the pIC50 in experiment [2] and in experiment [1] (Table 6) were 6.59 and 5.38, respectively. Take `CN1CCN(c2ccc(Nc3ncc4ccn(-c5ccc6c(c5)N(S(=O)(=O)C(C)(C)C)CC6)c4n3)cc2)CC1`: the pIC50 in experiment [2] is 5.85; in experiment [1] (Table 6) it was 7.49. For `CC(C)S(=O)(=O)Nc1cccc(-n2ccc3cnc(Nc4ccc(N5CCN(C)CC5)cc4)nc32)c1` the same measures were 5.99 and 8.09. Turning to `CN1CCN(c2ccc(Nc3ncc4ccn(-c5ccc6c(c5)N(S(=O)(=O)C(C)(C)C)CC6)c4n3)cc2F)CC1`, the pIC50 in experiment [2] was 5.89; in experiment [1] (Table 6) it was 7.42.

Regarding `CC(C)(C)S(=O)(=O)N1CCc2ccc(-n3ccc4cnc(Nc5ccc(N6CCNCC6)cc5)nc43)cc21`, the negative logarithm of the IC50 (pIC50) in experiment [2] was 5.71; in experiment [1] (Table 6), 7.40. The like results for `CC(C)(C)S(=O)(=O)Nc1cccc(Nc2nc(NC3CCNCC3)nc3[nH]ccc23)c1` were, in that order, 5.00 and 5.00.

For `CN1CCN(c2ccc(Nc3ncc4ccn(-c5cccc(NS(=O)(=O)C(C)(C)C)c5)c4n3)cc2Cl)CC1`, the negative-log IC50 (pIC50) in experiment [2] was 5.95; in experiment [1] (Table 6), 8.10. The like results for `CC(C)(C)S(=O)(=O)Nc1cccc(-n2ccc3cnc(NC4CCNCC4)nc32)c1` were, in that order, 5.00 and 5.00. The like results for `CN1CCC(Nc2ncc3ccn(-c4cccc(NS(=O)(=O)C(C)(C)C)c4)c3n2)CC1` were, in that order, 6.55 and 3.00. The like results for `CN1CCN(c2ccc(Nc3ncc4ccn(-c5ccc(F)c(NS(=O)(=O)C6CC6)c5)c4n3)cc2)CC1` were, in that order, 5.83 and 7.82. `CC(=O)N1CCN(c2ccc(Nc3ncc4ccn(-c5cccc(NS(=O)(=O)C(C)(C)C)c5)c4n3)cc2)CC1`: the pIC50 in experiment [1] (Table 6) was 7.35. Consider `CN1CCN(c2ccc(Nc3ncc4ccn(-c5cccc(NS(=O)(=O)C6CC6)c5)c4n3)cc2)CC1` [drawing 61], for which the pIC50 in experiment [1] (Table 3) is 8.60. The same measure, in the same setting: the result for `CN1CCN(c2ccc(Nc3ncc4ccn(-c5cccc(NS(=O)(=O)c6ccccc6)c5)c4n3)cc2)CC1` [drawing 62] reads 8.52; that for `O=S(=O)(Nc1cccc(-n2ccc3cnc(Nc4ccc(N5CCNCC5)cc4)nc32)c1)C1CC1` [drawing 63], 8.70; that for `CN1CCN(c2ccc(Nc3ncc4ccn(-c5cccc(NS(=O)(=O)C6CC6)c5)c4n3)cc2)CC1` [drawing 64], 8.37.

As for `CN(C)C1CCN(c2ccc(Nc3ncc4ccn(-c5cccc(NS(=O)(=O)C(C)(C)C)c5)c4n3)cc2F)CC1` [drawing 65], the pIC50 in experiment [1] (Table 3) was 8.36. Consider `Cc1noc(C)c1-c1cccc(-n2ccc3cnc(Nc4ccc(N5CCN(C)CC5)cc4)nc32)c1` [drawing 67], for which the pIC50 in experiment [1] (Table 3) was 8.52. Take `O=S(=O)(Nc1cccc(-n2ccc3cnc(Nc4ccc(N5CCNCC5)cc4)nc32)c1)C1CC1` [drawing 68]: in experiment [1] (Table 3), the pIC50 is 8.30. For the molecule `CN1CCN(c2ccc(Nc3ncc4ccn(-c5ccc(NS(=O)(=O)C(C)(C)C)cc5)c4n3)cc2)CC1` [drawing 69], the pIC50 in experiment [1] (Table 4) is 9.15. Still for that read-out and setting: the result for `CN1CCN(c2ccc(Nc3ncc4ccn(-c5ccc(CNS(=O)(=O)C(C)(C)C)cc5)c4n3)cc2)CC1` [drawing 70] reads 9.74; that for `CN1CCN(c2ccc(Nc3ncc4ccn(-c5ccc6c(c5)CCN6S(=O)(=O)C(C)(C)C)c4n3)cc2)CC1` [drawing 71], 9.22. As for `CNCCCOc1ccc(Nc2ncc3ccn(-c4cccc(NS(=O)(=O)C(C)(C)C)c4)c3n2)cc1F` [drawing 466], the pIC50 in experiment [2] is 6.70.
